US8329746B2, “Method for treating osteoarthritis” (CaloSyn Pharma, Inc., priority 2005, dated 2012)

Tested on: synovial lining cells
Conditions: human

SMILES	concentration that must not be exceeded in compositions (harmful effects on synovial cells)
CCN(CC)CCNC(=O)c1ccc(N)cc1 [procainamide]	≤ 2000 µg/mL
COc1ccc(CCN(C)CCCC(C#N)(c2ccc(OC)c(OC)c2)C(C)C)cc1OC (centres unmarked) [verapamil]	≤ 2000 µg/mL
